Results on one molecule are retold here after patent US20070232492A1, “Herbicidal Composition” (Ishihara Sangyo Kaisha, LTD., priority 2004, published 2007).

What all share (type): in vivo
In experiment [1] the test system is barnyardgrass (Echinochloa oryzicola vasing). Nature of the experiment: Growth inhibition of barnyardgrass in paddy soil pots, application under submerged condition, visual rating (observed value) and Colby expected value. The note with it: Echinochloa oryzicola, soil, read-out: Growth inhibition rate (%) Observed; for inhibition at 2.3 g/ha: 0.023 g/a; for inhibition at 4.5 g/ha: 0.045 g/a. In outline: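 Barnyardgrass (Echinochloa oryzicola vasing) seeds were sown in paddy field soil in 1/10,000 are pots and kept irrigated at a water depth of 3.5 cm. Wettable powders of the active ingredients were diluted with water and applied under submerged conditions at the prescribed amounts. Growth was visually scored from 0% (as untreated) to 100% (complete kill), and expected values were calculated with Colby's formula.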

Experiment [2] deals with flatsedge (Cyperus serotinus). Nature of the experiment: Growth inhibition of flatsedge (planted tubers) in paddy soil pots, application under submerged condition, visual rating and Colby expected value. Conditions: Cyperus serotinus, soil, 696 h, 2.8 to 3.2 leaf stage, 29 days after application, read-out: Growth inhibition rate (%) Observed. The text has this:
(§1) When the herbicidal activity in a case where two active ingredients are combined, is larger than the simple sum of the respective herbicidal activities of the two active ingredients (the expected activity), it is called a synergistic effect. The activity expected by the combination of two active ingredients can be calculated as follows (Colby S. R., “Weed”, vol. 15, p. 20-22, 1967). E=p+q−(p×q÷100) where p: growth inhibition rate when treated with x (g/a) of herbicide X,
(§2) q: growth inhibition rate when treated with y (g/a) of herbicide Y,
(§3) E: growth inhibition rate expected when treated with x (g/a) of herbicide X and y (g/a) of herbicide Y.
(§4) Namely, when the actual growth inhibition rate (observed value) is larger than the growth inhibition rate by the above calculation (expected value), the activity by the combination can be regarded as showing a synergistic effect.
(§5) Growth inhibition rate (%)=0% (equivalent to the non-treated area) to 100% (complete kill)
Paddy field soil was put into a 1/10,000 are pot, and tubers of flatsedge (Cyperus serotinus) were planted and left to stand under an irrigated condition with a water depth of 3.5 cm. When flatsedge reached 2.8 to 3.2 leaf stage, wettable powders of compound A2 and compound (B1.2) were, respectively, diluted with water and applied under submerged condition so that the active ingredients became the prescribed amounts, respectively. The state of growth was visually observed 29 days after application, and evaluation and calculation were carried out in the same manner as in the above Test Example 1.
Paddy field soil was put into a 1/3,000 are pot, and tubers of flatsedge (Cyperus serotinus) were planted and left to stand under an irrigated condition with a water depth of 3.5 cm. When flatsedge reached 4 leaf stage, a wettable powder of compound A2 and an emulsifiable concentrate of compound C4 were, respectively, diluted with water and applied under submerged condition so that the active ingredients became the prescribed amounts, respectively. The state of growth was visually observed 21 days after application, and the growth inhibition rate (%) evaluated in the same manner as in the above Test Example 1 (observed value) and the growth inhibition rate (%) calculated by the above-mentioned Colby method (expected value) are shown in Table 32.
Paddy field soil was put into a 1/10,000 are pot, and tubers of flatsedge (Cyperus serotinus) were planted and left to stand under an irrigated condition with a water depth of 3.5 cm. When flatsedge reached 2.5 to 3.0 leaf stage, wettable powders of compound A2, compound (D2.3) and compound (B4.1) were, respectively, diluted with water and applied under submerged condition so that the active ingredients became the prescribed amounts, respectively. The state of growth was visually observed 30 days after application, and evaluated in the same manner as in the above Test Example 1.
Paddy field soil was put into a 1/10,000 are pot, and tubers of flatsedge (Cyperus serotinus) were planted and left to stand under an irrigated condition with a water depth of 3.5 cm. When flatsedge reached 2.5 to 3.0 leaf stage, wettable powders of compound A2, compound (D2.3) and compound (B6.1) were, respectively, diluted with water and applied under submerged condition so that the active ingredients became the prescribed amounts, respectively. The state of growth was visually observed 30 days after application, and evaluated in the same manner as in the above Test Example 1.
Paddy field soil was put into a 1/10,000 are pot, and tubers of flatsedge (Cyperus serotinus) were planted and left to stand under an irrigated condition with a water depth of 3.5 cm. When flatsedge reached 2.5 to 3.0 leaf stage, wettable powders of compound A2, compound (D2.3) and compound (B8.1) were, respectively, diluted with water and applied under submerged condition so that the active ingredients became the prescribed amounts, respectively. […]

Experiment [3] in a line: Growth inhibition of mixed broadleaf paddy weeds in paddy soil pots, application under submerged condition, visual rating and Colby expected value. The note with it: mixed broadleaf paddy weeds, soil, 504 h; 0.12 g/a; false pimpernel one leaf-pair stage; 21 days after application; read-out: Growth inhibition rate (%) Observed.
Description: as §1, §2, §3, §4, §5
Paddy field soil was put into a 1/1,700 are pot, and mixed seeds of false pimpernel (Lindernia pyxidaria), abunome (Dopatrium junceum), long stem waterwort (Elatine triandra SCHK.) and toothcup (Rotala india) were sown and left to stand under an irrigated condition with a water depth of 3.5 cm. When false pimpernel reached one leaf-pair stage, wettable powders of compound A2 and compound (B1.2) were, respectively, diluted with water and applied under submerged condition so that the active ingredients became the prescribed amounts, respectively. The state of growth was visually observed 21 days after application, and evaluation and calculation were carried out in the same manner as in the above Test Example 1.
Paddy field soil was put into a 1/1,700 are pot, and mixed seeds of false pimpernel (Lindernia pyxidaria), abunome (Dopatrium junceum), long stem waterwort (Elatine triandra SCHK.) and toothcup (Rotala india) were sown and left to stand under an irrigated condition with a water depth of 3.5 cm. When false pimpernel reached two leaf-pair stage, a wettable powder of compound A2 and an emulsifiable concentrate of compound (B8.1) were, respectively, diluted with water and applied under submerged condition so that the active ingredients became the prescribed amounts, respectively. The state of growth was visually observed 22 days after application, and evaluation and calculation were carried out in the same manner as in the above Test Example 1.

Where [4] appears, read: 504 h, 3.0 to 3.3 leaf stage, 21 days after application.
[5] abbreviates: 528 h, 2.5 to 3.0 leaf stage, 22 days after application.

Molecules are shown by their SMILES. Like-named read-outs stand apart in the source and are kept apart here.

For orientation: inhibition means the drop in the measured response relative to a control, in per cent. With `COc1cc(OC)nc(NC(=O)NS(=O)(=O)c2c(-c3nnn(C)n3)cnn2C)n1` [Compound (B1.2), azimsulfuron], the inhibition at 2.3 g/ha in experiment [1] (setting [4]) and in experiment [1] (setting [5]) was 0% in each case. The inhibition at 4.5 g/ha in experiment [1] (setting [4]) was 7%; in experiment [1] (setting [5]), 53%. In addition, the inhibition at 3 g/ha in experiment [1] (696 h, 0.03 g/a, 2.4 to 3.2 leaf stage, 29 days after application, Test Example 45) was 30%. Moreover, the inhibition at 6 g/ha in experiment [1] (696 h, 0.06 g/a, 2.4 to 3.2 leaf stage, 29 days after application, Test Example 45) is 57%. In experiment [1] (696 h, 0.075 g/a, 2.4 to 3.2 leaf stage, 29 days after application, Test Example 45), the inhibition at 7.5 g/ha worked out at 60%. Moreover, in experiment [2] (0.0125 g/a), the inhibition at 1.25 g/ha is 20%. For the same molecule, the inhibition at 1.5 g/ha in experiment [2] (0.015 g/a) worked out at 33%. Further, the inhibition at 1.88 g/ha in experiment [2] (0.0188 g/a) is 58%. In addition, in experiment [3], the inhibition at 12 g/ha was found to be 60%.
